# In patent publication US9873709B2 (priority 2013, dated 2018):
# pIC50: −log10 of the molar value.
# System: JAK1-dependent STAT6 phosphorylation downstream of IL-13 stimulation in TF-1 human erythroleukemia cells
# Experiment: cells
# Conditions: TF-1, read-out: IL-13-pSTAT6 IC50
row,pIC50,SMILES
1,7.92,"CCOC(=O)N1CC=C(c2cccn3nc(Nc4ccc(C(=O)N5CC6(CCN(C)C6)C5)cc4)nc23)CC1 [Example 2-68, ethyl 4-[2-[4-(7-methyl-2,7-diazaspiro[3.4]octane-2-carbonyl)anilino]-[1,2,4]triazolo[1,5-a]pyridin-8-yl]-3,6-dihydro-2H-pyridine-1-carboxylate]"
2,7.53,"CCOC(=O)N1CC=C(c2cccn3nc(Nc4ccc(C(=O)N5Cc6cccnc6C5)cc4)nc23)CC1 [Example 2-70, ethyl 4-[2-[4-(5,7-dihydropyrrolo[3,4-b]pyridine-6-carbonyl)anilino]-[1,2,4]triazolo[1,5-a]pyridin-8-yl]-3,6-dihydro-2H-pyridine-1-carboxylate]"
3,7.72,"CCOC(=O)N1CC=C(c2cccn3nc(Nc4ccc(C(=O)N5CC(N)C5)cc4)nc23)CC1 [Example 2-74, ethyl 4-[2-[4-(3-aminoazetidine-1-carbonyl)anilino]-[1,2,4]triazolo[1,5-a]pyridin-8-yl]-3,6-dihydro-2H-pyridine-1-carboxylate]"
4,6.87,"CCOC(=O)N1CC=C(c2cccn3nc(Nc4ccc(C(=O)N5CC6(CNC6)C5)cc4)nc23)CC1 [Example 2-77, ethyl 4-[2-[4-(2,6-diazaspiro[3.3]heptane-2-carbonyl)anilino]-[1,2,4]triazolo[1,5-a]pyridin-8-yl]-3,6-dihydro-2H-pyridine-1-carboxylate]"
5,6.44,"CCOC(=O)N1CC=C(c2cccn3nc(Nc4ccc(C(=O)N5CCC6(CCNC6)C5)cc4)nc23)CC1 (stereo not shown) [Example 2-78, ethyl 4-[2-[4-(2,7-diazaspiro[4.4]nonane-2-carbonyl)anilino]-[1,2,4]triazolo[1,5-a]pyridin-8-yl]-3,6-dihydro-2H-pyridine-1-carboxylate]"
6,7.10,"NCC1CCCN1C(=O)c1ccc(Nc2nc3c(C4=CCN(C(=O)CCC(F)(F)F)CC4)cccn3n2)cc1 (stereo not shown) [Example 2-80, 1-[4-[2-[4-[2-(aminomethyl)pyrrolidine-1-carbonyl]anilino]-[1,2,4]triazolo[1,5-a]pyridin-8-yl]-3,6-dihydro-2H-pyridin-1-yl]-4,4,4-trifluoro-butan-1-one]"
7,7.22,"O=C(CCC(F)(F)F)N1CC=C(c2cccn3nc(Nc4ccc(C(=O)N5CC6(CCNCC6)C5)cc4)nc23)CC1 [Example 2-81, 1-[4-[2-[4-(2,7-diazaspiro[3.5]nonane-2-carbonyl)anilino]-[1,2,4]triazolo[1,5-a]pyridin-8-yl]-3,6-dihydro-2H-pyridin-1-yl]-4,4,4-trifluoro-butan-1-one]"
8,6.65,"O=C(CCC(F)(F)F)N1CC=C(c2cccn3nc(Nc4ccc(C(=O)N5CCOC6(CCCNC6)C5)cc4)nc23)CC1 (stereo not shown) [Example 2-82, 4,4,4-trifluoro-1-[4-[2-[4-(1-oxa-4,8-diazaspiro[5.5]undecane-4-carbonyl)anilino]-[1,2,4]triazolo[1,5-a]pyridin-8-yl]-3,6-dihydro-2H-pyridin-1-yl]butan-1-one]"
9,6.71,"O=C(NCC1CCC2(CCNCC2)O1)c1ccc(Nc2nc3c(C4=CCN(C(=O)CCC(F)(F)F)CC4)cccn3n2)cc1 (stereo not shown) [Example 2-83, N-(1-oxa-8-azaspiro[4.5]decan-2-ylmethyl)-4-[[8-[1-(4,4,4-trifluorobutanoyl)-3,6-dihydro-2H-pyridin-4-yl]-[1,2,4]triazolo[1,5-a]pyridin-2-yl]amino]benzamide]"
10,7.15,"O=C(NCC1CCNCC1)c1ccc(Nc2nc3c(C4=CCN(C(=O)CCC(F)(F)F)CC4)cccn3n2)cc1 [Example 2-84, N-(4-piperidylmethyl)-4-[[8-[1-(4,4,4-trifluorobutanoyl)-3,6-dihydro-2H-pyridin-4-yl]-[1,2,4]triazolo[1,5-a]pyridin-2-yl]amino]benzamide]"
11,7.20,"CNC1CCN(C(=O)c2ccc(Nc3nc4c(C5=CCN(C(=O)CCC(F)(F)F)CC5)cccn4n3)cc2)C1 (stereo not shown) [Example 2-85, 4,4,4-trifluoro-1-[4-[2-[4-[3-(methylamino)pyrrolidine-1-carbonyl]anilino]-[1,2,4]triazolo[1,5-a]pyridin-8-yl]-3,6-dihydro-2H-pyridin-1-yl]butan-1-one]"
12,6.67,"O=C(NCCC1CCNCC1)c1ccc(Nc2nc3c(C4=CCN(C(=O)CCC(F)(F)F)CC4)cccn3n2)cc1 [Example 2-86, N-[2-(4-piperidyl)ethyl]-4-[[8-[1-(4,4,4-trifluorobutanoyl)-3,6-dihydro-2H-pyridin-4-yl]-[1,2,4]triazolo[1,5-a]pyridin-2-yl]amino]benzamide]"
13,8.07,"CN1CC2CN(C(=O)c3ccc(Nc4nc5c(C6=CCN(C(=O)CCC(F)(F)F)CC6)cccn5n4)cc3)CC2C1 (stereo not shown) [Example 2-87, 4,4,4-trifluoro-1-[4-[2-[4-(2-methyl-1,3,3a,4,6,6a-hexahydropyrrolo[3,4-c]pyrrole-5-carbonyl)anilino]-[1,2,4]triazolo[1,5-a]pyridin-8-yl]-3,6-dihydro-2H-pyridin-1-yl]butan-1-one]"
14,7.68,"Cc1cc(N(C)C)cc(C2CCCN2C(=O)c2ccc(Nc3nc4c(C5=CCN(C(=O)CCC(F)(F)F)CC5)cccn4n3)cc2)n1 (stereo not shown) [Example 2-92, 1-[4-[2-[4-[2-[4-(dimethylamino)-6-methyl-2-pyridyl]pyrrolidine-1-carbonyl]anilino]-[1,2,4]triazolo[1,5-a]pyridin-8-yl]-3,6-dihydro-2H-pyridin-1-yl]-4,4,4-trifluoro-butan-1-one]"
15,8.33,"CN1CCCC2(CCCN(C(=O)c3ccc(Nc4nc5c(C6=CCN(C(=O)CCC(F)(F)F)CC6)cccn5n4)cc3)C2)C1 (stereo not shown) [Example 2-93, 4,4,4-trifluoro-1-[4-[2-[4-(8-methyl-2,8-diazaspiro[5.5]undecane-2-carbonyl)anilino]-[1,2,4]triazolo[1,5-a]pyridin-8-yl]-3,6-dihydro-2H-pyridin-1-yl]butan-1-one]"
16,7.63,"CCOC(=O)N1CC=C(c2cccn3nc(Nc4ccc(C(=O)OC5CCN(C)CC5)cc4)nc23)CC1 [Example 2-94, ethyl 4-[2-[4-[(1-methyl-4-piperidyl)oxycarbonyl]anilino]-[1,2,4]triazolo[1,5-a]pyridin-8-yl]-3,6-dihydro-2H-pyridine-1-carboxylate]"
17,8.37,"O=C(CCC(F)(F)F)N1CC=C(c2cccn3nc(Nc4ccc(C(=O)N5CCN(Cc6ccccn6)CC5)cc4)nc23)CC1 [Example 2-95, 4,4,4-trifluoro-1-[4-[2-[4-[4-(2-pyridylmethyl)piperazine-1-carbonyl]anilino]-[1,2,4]triazolo[1,5-a]pyridin-8-yl]-3,6-dihydro-2H-pyridin-1-yl]butan-1-one]"
18,8.28,"CN(CCc1ccncc1)C(=O)c1ccc(Nc2nc3c(C4=CCN(C(=O)CCC(F)(F)F)CC4)cccn3n2)cc1 [Example 2-96, N-methyl-N-[2-(4-pyridyl)ethyl]-4-[[8-[1-(4,4,4-trifluorobutanoyl)-3,6-dihydro-2H-pyridin-4-yl]-[1,2,4]triazolo[1,5-a]pyridin-2-yl]amino]benzamide]"
19,7.86,"CN(C)C1CCN(C(=O)c2ccc(Nc3nc4c(C5=CCN(C(=O)CCC(F)(F)F)CC5)cccn4n3)cc2)CC1 [Example 2-97, 1-[4-[2-[4-[4-(dimethylamino)piperidine-1-carbonyl]anilino]-[1,2,4]triazolo[1,5-a]pyridin-8-yl]-3,6-dihydro-2H-pyridin-1-yl]-4,4,4-trifluoro-butan-1-one]"
